Assay results taken from PubChem BioAssay AID179 (DTP/NCI, 2004).
Activity calls are given as the source filed them.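 The calls were made as follows: active = compounds giving half or more protection of infected cells from virus-caused growth loss, again on retest; inactive = the rest.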 Where a SMILES comes first, the peptide text is derived from it.

System: CEM cells HIV-1 protection, formazan growth assay
Assay: NCI AIDS Antiviral Assay
Settings: for IC50: measured here: growth of uninfected CEM cells
Method in brief: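 Human CEM cells, uninfected and HIV-1-infected, received five drug concentrations, and growth was read by soluble formazan assay. Compounds giving at least 50% protection were retested; reproducible 100% protection defined confirmed active.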

Compound | EC50 [µM] | IC50 [µM] | outcome
NC(N)=NN=C1CCCCC1 | > 200 | > 200 | 
O=C(NCCCCl)c1c(O)c2ccccc2[nH]c1=O | > 200 | 81.3 | 
CCOC(=O)/C(=C\c1ccc2ccccc2c1)P(=O)(OCC)OCC | > 186 | 5.37 | 
O=c1/c(=C/c2ccc3c(c2)OCO3)sc2nnc(Cc3ccccc3)n12 | > 20 | > 20 | 
CN1CC2=C(NC(=S)NC2c2ccc(Cl)cc2)/C(=C/c2ccc(Cl)cc2)C1 (stereo not drawn) | > 200 | 33.9 | 
COc1ccc(/C=C/C(=N\NC(=O)c2ccccc2)c2sc(Nc3ccc([N+](=O)[O-])cc3)nc2C)cc1OC | > 13.2 | > 13.2 | 
Cc1c2ccccc2nc(CSOCCO)[n+]1[O-] | > 200 | > 200 | 
C[C@H]1COC2=C1C(=O)C(=O)c1c2ccc2c1CCCC2(C)C | > 200 | 8.91 | 
C[n+]1c2ccccc2c(/C=N\NS(=O)(=O)c2ccc(Cl)cc2)c2ccccc21 |  |  | inactive
OCC1OC(NC(=S)NCCC(F)(F)C(F)(F)C(F)(F)C(F)(F)C(F)(F)C(F)(F)F)C(O)C(O)C1O (stereo not drawn) | > 200 | 120 | 
S=C1NC2=C(CSC/C2=C\c2cccc(Br)c2)C(c2cccc(Br)c2)N1 (stereo not drawn) | > 200 | 19.5 | 
c1ccc2c(c1)[nH]c1c2nc2ncccn21 |  |  | inactive
CCC1C(=O)OCc2c1cc1n(c2=O)C(CC)c2c-1nc1ccccc1c2Cl (stereo not drawn) | > 10 | 4.68 | 
CCOP(=O)(Nc1ccc(-c2ccc(N)cc2)cc1)OCC | > 200 | 170 | 
O=S(=O)(/C=C/C(=C/c1ccccc1)S(=O)(=O)c1ccccc1)c1ccccc1 |  |  | inactive
CCN(CC)CCn1ncc2c3c(=O)c4cccnc4n(CCN(CC)CC)c3ccc21 | > 200 | 3.47 | 
CC1(C)N=C(C(N)=O)c2ncn(CCO)c2N1 | > 200 | > 200 | 
O=C1OCC2OC(O)C(O)C(O)C2OC(=O)c2cc(O)c(O)c(O)c2-c2c(O)c(O)c3oc(=O)c4c(c(O)c(O)c5oc(=O)c2c3c54)-c2c1cc(O)c(O)c2O (stereo not drawn) | 4.17 | 14.8 | 
O=C(CC1(O)C(=O)Nc2c(Cl)cc(Cl)cc21)c1ccc([N+](=O)[O-])cc1 (stereo not drawn) | > 178 | 93.3 | 
Nc1nc(O)c(N=O)c(=O)[nH]1 | > 200 | > 200 | 
CCOC(=O)C(CO)c1nc2c([nH]c1=O)c(=O)n(C)c(=O)n2C (stereo not drawn) | > 200 | > 200 | 

Compound | EC50 [µM] | IC50 [µM] | outcome
C=CC1=C(C)C(/C=c2\[nH]/c(=C/c3[nH]c(CC4NC(=O)C(C)/C4=C\C)c(C)c3CCC(=O)O)c(CC(=O)O)c2C)=NC1=O (stereo not drawn) | > 2690 | > 2690 | 
CC(=O)Nc1ccc(CNc2cc(=O)[nH]c(=O)[nH]2)cc1 | > 200 | > 200 | 
O=C(NC/C(Cl)=C/Cl)Nc1cccc2c1CCCC2 | > 200 | 50.1 | 
COc1cc2c(c(OC)c1OC)-c1ccc(OC)c(=O)cc1C(NC(=O)c1ccc(N=[N+]=[N-])cc1)CC2 (stereo not drawn) | > 200 | 5.89 | 
CC(C)(C)C1=CC(=C(P(=O)(O)O)P(=O)(O)O)C=C(C(C)(C)C)C1=O | > 537 | > 537 | 
COc1ccccc1C(C(=O)NC1CN2CCC1CC2)c1ccsc1 (stereo not drawn) | > 200 | 151 | 
CCC(C)C(NC(=O)C(CCC(N)=O)NC(=O)C1CCCN1)C(=O)NC(C(=O)NC(CC(C)C)C(=O)O)C(C)O (stereo not drawn) (H-PQITL-OH; configuration not given here) |  |  | inactive
CC(CCC(=O)O)[C@H]1CCC2[C@@H]3CC[C@@H]4CC(O)CC[C@]4(C)C3CC[C@@]21C (stereo partly drawn) | > 200 | > 100 | 
N=c1c2ccccc2nc2oc3ccccc3n12 | > 200 | > 200 | 
c1cc2nc(c1)CSCCCCCCCCSC2 | > 35.5 | > 35.5 | 
CC(=O)c1ccccc1NCC(=O)Nn1cnc2ccc(S(=O)(=O)Nc3ccccc3C(C)=O)cc2c1=O | > 200 | > 200 | 
CCCc1c(O)nc(Nc2nc3ccccc3[nH]2)[nH]c1=O | > 200 | 63.1 | 
OCCN(CCO)c1ccc2c(-c3ccccc3)cc(N(CCO)CCO)nc2n1 | > 200 | 120 | 
CC(=O)OC1=C(C)S(=O)(=O)c2ccccc21 | > 200 | > 200 | 
O=C(Nc1cc(Cl)cc(Cl)c1)/C(Cc1nc2ccccc2[nH]c1=O)=N/NC(=O)c1ccncc1 | > 132 | > 132 | 
C[C@]12CC=CC(=O)[C@@]1(C)CCC(=O)C2 |  |  | inactive
O=C(OCC1CCCN2CCCCC12)c1cccnc1 (stereo not drawn) | > 200 | > 200 | 
Cc1ccc(SSc2ccc([N+](=O)[O-])cc2)cc1 | > 200 | 9.55 | 
CC(C)C(=O)/C=C/c1ccc(Cl)cc1Cl |  |  | inactive
CCOC(=O)NNC(=O)NCCNC(=O)NNC(=O)OCC | > 200 | > 200 | 
O=C(/C=C1/NC(=O)CS1)Nc1ccccc1 | > 380 | 182 | 

Compound | EC50 [µM] | IC50 [µM] | outcome
COc1cc(CNC2c3cc4c(cc3C(c3cc(OC)c(OC)c(OC)c3)[C@H]3C(=O)OCC23)OCO4)cc(OC)c1OC (stereo partly drawn) |  |  | inactive
Cc1ccc(S(=O)(=O)n2c3c(c4ccccc42)CCN2C(=O)C(S(=O)(=O)c4ccccc4)=CCC32)cc1 (stereo not drawn) | > 200 | 0.589 | 
CN(C)c1nc(NN)c2c(-c3ccccc3)c(-c3ccccc3)oc2n1 | > 100 | > 100 | 
O=C(CNc1ccccc1[N+](=O)[O-])Nn1cnc2ccc(S(=O)(=O)Nc3ccccc3[N+](=O)[O-])cc2c1=O | > 200 | > 200 | 
CCOP(=O)(OCC)C(Nc1cccc([N+](=O)[O-])c1)c1ccccc1 (stereo not drawn) | > 200 | 174 | 
Cc1ccnc2c1C(=O)C1=C(OC(C)(C)CC1O)C2=O (stereo not drawn) | > 200 | 10.7 | 
Cc1nc2c(C#N)c3n(c2c(=O)o1)CCCC3 | > 200 | > 200 | 
CC1C2CC(C(C3C(=O)C4CC3C(C)(C)C4C)C2=O)C1(C)C (stereo not drawn) | > 437 | > 437 | 
CC(=O)Oc1c2ccsc2cc2ccsc12 | > 75.9 | 3.31 | 
Cc1ccccc1OP(=S)(Oc1ccccc1C)Oc1ccccc1C | > 200 | 35.5 | 
Cc1nnc2cc(C(=O)O)c3ccccc3n2c1=O | > 200 | > 200 | 
CCOc1ccc(C2(C)OC(=O)C3CCCCC32)c2ccccc12 (stereo not drawn) |  |  | inactive
CN1C(=O)c2ccccc2Cc2c(N3CCCC3)ncnc21 | > 17.8 | > 17.8 | 
c1ccc([P+](c2ccccc2)(c2ccccc2)c2ccc([P+](c3ccccc3)(c3ccccc3)c3ccccc3)c3ccccc23)cc1 | > 200 | 110 | 
COc1cc2ccccc2oc1=O | > 40.7 | > 40.7 | 
CCN(CC)c1ccc2cc(C(=O)NCc3ccccc3)c(=N)oc2c1 | > 200 | 11 | 
NC(=O)OCC(O)COc1ccc(Cl)cc1 (stereo not drawn) | > 200 | > 200 | 
O=C1C2=C(c3ccccc31)C(c1cccc(Cl)c1)NC(=S)N2 (stereo not drawn) | > 57.5 | 35.5 | 
Cn1c(-c2cccc(N)c2)[n+](C)c2ccccc21 | > 200 | 126 | 
CC(C)C1=C[C@@]23CCC4C(C)(C)CCC[C@]4(C(=O)O2)C3=CC1=O (stereo partly drawn) | > 43.7 | > 43.7 | 
COc1ccc(C2=NNC(=O)OC2c2ccccc2)cc1 (stereo not drawn) | > 63.1 | 7.24 | 
